In this assay the test system is phosphoinositide/Ca2+ pathway. As to the kind of experiment: Direct membrane current responses of oocytes to fenamates. In kind it is cell-based, Xenopus laevis. Conditions: 10-100 μM; in some oocytes.

Each structure is given as a SMILES string.

Take `Cc1ccc(Cl)c(Nc2ccccc2C(=O)O)c1Cl` [Meclofenamate, Meclofenamic acid]: the “direct membrane current responses” value is listed as “able to elicit membrane current responses”. Turning to `Cc1cccc(Nc2ccccc2C(=O)O)c1C` [Mefenamic acid], the “direct membrane current responses” value was “able to elicit membrane current responses”.

(Values after patent publication US5637617A, “Methods for use of GABAa receptor GABAergic compounds” (The Regents of the University of California, priority 1994, dated 1997).)
